Results on 43 compounds are retold here after US7244727B2, “Fused bicyclic nitrogen-containing heterocycles” (Japan Tobacco Inc., priority 2002, dated 2007).

One may read the IC50 as the concentration at which inhibition is half-maximal. For orientation: melting point means the temperature of the solid-liquid transition.

Data set [1] has as its target T1, human DGAT1 (Homo sapiens, UniProt O75907).
T1 construct: made in house; host or cells: insect cells (sf9, sf21 or High Five) infected with baculovirus; total cell membranes
T1 sequence (O75907 1-488): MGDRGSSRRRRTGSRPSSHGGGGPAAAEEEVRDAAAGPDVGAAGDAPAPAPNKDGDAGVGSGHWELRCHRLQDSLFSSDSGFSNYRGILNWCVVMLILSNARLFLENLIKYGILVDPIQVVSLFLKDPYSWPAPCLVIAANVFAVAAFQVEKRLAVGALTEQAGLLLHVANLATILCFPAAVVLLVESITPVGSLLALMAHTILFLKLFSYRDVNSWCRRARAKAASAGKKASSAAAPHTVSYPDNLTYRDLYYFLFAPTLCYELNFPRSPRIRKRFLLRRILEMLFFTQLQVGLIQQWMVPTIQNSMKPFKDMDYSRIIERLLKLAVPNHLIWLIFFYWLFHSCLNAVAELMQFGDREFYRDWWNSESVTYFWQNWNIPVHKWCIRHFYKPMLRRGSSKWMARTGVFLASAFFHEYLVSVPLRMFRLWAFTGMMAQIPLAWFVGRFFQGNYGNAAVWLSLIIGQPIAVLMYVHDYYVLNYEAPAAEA
The data set can be described thus: DGAT Scintillation Proximity Assay (SPA) with membranes of insect cells expressing human flagtag DGAT1. The format is biochemical. To be noted: read-out: hDGAT1 IC50. The method in brief: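 Membranes (0.2 μg/well) from insect cells expressing human flag-tagged DGAT1 incubated with 10 μM compound and 200 μM dioleoyl glycerol substrate; mercuric chloride as inhibition control. Reaction stopped with WGA SPA beads in mercuric chloride, overnight bead coupling, then scintillation proximity signal read.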

In turn, `CC1(C)Oc2ncnc(N)c2N=C1c1ccc([C@H]2CC[C@H](SCC(=O)O)CC2)cc1` [Example 2-112] returned a melting point greater than 250 °C. Further, the IC50 in data set [1] was 10 to 100 nM.
In the case of `Cc1ncc(C[C@H]2CC[C@H](c3ccc(C4=Nc5c(N)ncnc5OC4(C)C)cc3)CC2)[nH]1` [Example 2-113], the melting point lay within 172 to 173 °C. Besides, in data set [1], the IC50 lay within 10 to 100 nM.
In the case of `CC(C)NC[C@H]1CC[C@H](c2ccc(C3=Nc4c(N)ncnc4OC3(C)C)cc2)CC1` [Example 2-114], the melting point is 250 °C. For the same compound, the IC50 in data set [1] is 10 to 100 nM.
The matching figures for `CCOC(=O)N1CCC(NC[C@H]2CC[C@H](c3ccc(C4=Nc5c(N)ncnc5OC4(C)C)cc3)CC2)CC1` [Example 2-115]: 127 to 135 °C and greater than 100 nM.
Regarding `CC1(C)Oc2ncnc(N)c2N=C1c1ccc([C@H]2CC[C@H](CN[C@H]3CC[C@H](O)CC3)CC2)cc1` [Example 2-116], the melting point is greater than 250 °C. For the same compound, the IC50 in data set [1] is 10 to 100 nM.
Regarding `CC1(C)Oc2nccc(N)c2N=C1c1ccc([C@H]2CC[C@H](CC(=O)O)CC2)cc1` [Example 2-117], the melting point is greater than 250 °C. Further, in data set [1], the IC50 fell in the range of 10 to 100 nM.
Turning to `Cc1ncc(C[C@H]2CC[C@H](c3ccc(C4=Nc5c(N)ncnc5OC4(C)C)cc3)CC2)s1` [Example 2-118], the melting point lay in the range of 215 to 216 °C. The IC50 in data set [1] lay within 10 to 100 nM.
The matching figures for `CC1(C)Oc2ncnc(N)c2N=C1c1ccc([C@H]2CC[C@H](Cc3cnc(C(C)(C)C)[nH]3)CC2)cc1` [Example 2-119]: greater than 250 °C and 10 to 100 nM.
For the compound `CC1(C)Oc2ncnc(N)c2N=C1c1ccc([C@H]2CC[C@H](Cc3cnc(C4CC4)[nH]3)CC2)cc1` [Example 2-120], the melting point fell in the range of 226 to 227 °C. The IC50 in data set [1] fell in the range of 10 to 100 nM.
For the compound `CC1(C)Oc2ncnc(N)c2N=C1c1ccc([C@H]2CC[C@H](Cc3nc4cc(Cl)ccc4[nH]3)CC2)cc1` [Example 2-122], the melting point is greater than 230 °C. Besides, the IC50 in data set [1] lay in the range of 10 to 100 nM.
The matching figures for `CC1(C)Oc2ncnc(N)c2N=C1c1ccc([C@H]2CC[C@H](Cc3cnc(-c4ccccc4)[nH]3)CC2)cc1` [Example 2-123]: 230 to 231 °C and 10 to 100 nM.
For `CC1(C)Oc2ncnc(N)c2N=C1c1ccc([C@H]2CC[C@H](Cc3nc4cc(F)ccc4[nH]3)CC2)cc1` [Example 2-124], the melting point is greater than 230 °C. Further, in data set [1], the IC50 is 10 to 100 nM.
With `CC1(C)Oc2ncnc(N)c2N=C1c1ccc([C@@H]2CCC[C@H](CC(=O)O)C2)cc1` [Example 2-126], the melting point fell in the range of 234 to 235 °C. Moreover, the IC50 in data set [1] lay in the range of 10 to 100 nM.
Consider `Cc1csc(NC[C@H]2CC[C@H](c3ccc(C4=Nc5c(N)ncnc5OC4(C)C)cc3)CC2)n1` [Example 2-127], for which the melting point was 228 to 230 °C. Also, the IC50 in data set [1] fell in the range of 10 to 100 nM.
The matching figures for `CC(=O)NC[C@H]1CC[C@H](c2ccc(C3=Nc4c(N)ncnc4OC3(C)C)cc2)CC1` [Example 2-128]: 253 to 254 °C and 10 to 100 nM.
`Cc1ccc(S(=O)(=O)NC[C@H]2CC[C@H](c3ccc(C4=Nc5c(N)ncnc5OC4(C)C)cc3)CC2)cc1` [Example 2-129] had a melting point of 206 to 207 °C. Besides, the IC50 in data set [1] lay in the range of 10 to 100 nM.
For the compound `CC1(C)Oc2ncnc(N)c2N=C1c1ccc([C@H]2CC[C@H](CNS(N)(=O)=O)CC2)cc1` [Example 2-130], the melting point lay in the range of 226 to 227 °C. Also, the IC50 in data set [1] lay within 10 to 100 nM.
The matching figures for `CC1(C)Oc2ncnc(N)c2N=C1c1ccc([C@H]2CC[C@H](CNC(=O)[C@@H]3CCCN3)CC2)cc1` [Example 2-131]: 230 to 231 °C and 10 to 100 nM.
The matching figures for `CC1(C)Oc2ncnc(N)c2N=C1c1ccc([C@H]2CC[C@H](CNC(=O)[C@@H]3C[C@@H](O)CN3)CC2)cc1` [Example 2-132]: 217 to 218 °C and 10 to 100 nM.
The matching figures for `Cc1nc(N)c2c(n1)OC(C)(C)C(c1ccc([C@H]3CC[C@H](CC(=O)NS(C)(=O)=O)CC3)cc1)=N2` [Example 2-134]: 225 to 226 °C and less than 10 nM.
As for `Cc1nc(N)c2c(n1)OC(C)(C)C(c1ccc([C@H]3CC[C@H](CC(=O)NC(C)(C)CO)CC3)cc1)=N2` [Example 2-135], the melting point was 229 to 230 °C. Besides, the IC50 in data set [1] lay within 10 to 100 nM.
The matching figures for `Cc1nc(N)c2c(n1)OC(C)(C)C(c1ccc([C@H]3CC[C@H](CC(=O)N4CC(O)C(O)C4)CC3)cc1)=N2` (some centres unmarked) [Example 2-136]: 210 to 211 °C and 10 to 100 nM.
Compound `Cc1nc(N)c2c(n1)OC(C)(C)C(c1ccc([C@H]3CC[C@H](Cc4nn[nH]n4)CC3)cc1)=N2` [Example 2-137] registered a melting point greater than 250 °C. The IC50 in data set [1] was less than 10 nM.
In turn, `Cc1nc(N)c2c(n1)OC(C)(C)C(c1ccc([C@H]3CC[C@H](CNC(=O)CO)CC3)cc1)=N2` [Example 2-138] returned a melting point of 235 to 238 °C. The IC50 in data set [1] was 10 to 100 nM.
Compound `Cc1nc(N)c2c(n1)OC(C)(C)C(c1ccc([C@H]3CC[C@H](CNC(=O)C(C)(C)CO)CC3)cc1)=N2` [Example 2-139] came in with a melting point of 249 to 250 °C. Also, the IC50 in data set [1] is 10 to 100 nM.
`Cc1nc(N)c2c(n1)OC(C)(C)C(c1ccc([C@H]3CC[C@H](CNC(=O)CCO)CC3)cc1)=N2` [Example 2-140] gave a melting point of 223 to 224 °C. In addition, in data set [1], the IC50 lay in the range of 10 to 100 nM.
The matching figures for `Cc1nc(N)c2c(n1)OC(C)(C)C(c1ccc([C@H]3CC[C@H](CCNC(=O)C(C)(C)O)CC3)cc1)=N2` [Example 2-141]: 221 to 223 °C and 10 to 100 nM.
The matching figures for `Cc1nc(N)c2c(n1)OC(C)(C)C(c1ccc([C@H]3CC[C@H](CC(=O)NCC(N)=O)CC3)cc1)=N2` [Example 2-142]: 142 to 144 °C and 10 to 100 nM.
On to `Cc1nc(N)c2c(n1)OC(C)(C)C(c1ccc([C@H]3CC[C@H](CC(=O)N(C)CC(=O)O)CC3)cc1)=N2` [Example 2-143], for which the melting point is 196 to 198 °C. For the same compound, the IC50 in data set [1] was less than 10 nM.
The matching figures for `Cc1nc(N)c2c(n1)OC(C)(C)C(c1ccc([C@H]3CC[C@H](CC(=O)N(C)CC(N)=O)CC3)cc1)=N2` [Example 2-144]: greater than 230 °C and 10 to 100 nM.
`Cc1nc(N)c2c(n1)OC(C)(C)C(c1ccc(C3CC(CC(=O)O)C3(C)C)cc1)=N2` (centres unmarked) [Example 2-145]: the melting point is greater than 250 °C. In addition, the IC50 in data set [1] lay within 10 to 100 nM.
As for `Cc1nc(N)c2c(n1)OC(C)(C)C(c1ccc(C3CC(CC(=O)O)C3)cc1)=N2` (centres unmarked) [Example 2-146], the melting point was greater than 250 °C. The IC50 in data set [1] lay within 10 to 100 nM.
For `Cc1nc(N)c2c(n1)OC(C)(C)C(c1ccc([C@H]3CC[C@H](Cc4n[nH]c(=O)[nH]4)CC3)cc1)=N2` [Example 2-147], the melting point is greater than 230 °C. Also, in data set [1], the IC50 lay in the range of 10 to 100 nM.
For `Cc1nc(N)c2c(n1)OC(C)(C)C(c1ccc([C@H]3CC[C@H](CC(=O)Cc4nn[nH]n4)CC3)cc1)=N2` [Example 2-148], the melting point is greater than 250 °C. The IC50 in data set [1] is less than 10 nM.
In turn, `Cc1nc(N)c2c(n1)OC(C)(C)C(c1ccc(C3CC(CCC(=O)O)C3)cc1)=N2` (centres unmarked) [Example 2-149] returned a melting point of 237 to 238 °C. For the same compound, the IC50 in data set [1] was 10 to 100 nM.
Consider `Cc1nc(N)c2c(n1)OC(C)(C)C(c1ccc([C@H]3CC[C@H](CNC(=O)C(C)(C)O)CC3)cc1)=N2` [Example 2-150], for which the melting point is 228 to 229 °C. Besides, the IC50 in data set [1] lay in the range of 10 to 100 nM.
As for `Cc1nc(N)c2c(n1)OC(C)(C)C(c1ccc([C@H]3CC[C@H](Cc4nc(=O)o[nH]4)CC3)cc1)=N2` [Example 2-151], the melting point was greater than 250 °C. In addition, the IC50 in data set [1] was less than 10 nM.
Take `Cc1nc(N)c2c(n1)OC(C)(C)C(c1ccc([C@H]3CC[C@H](Cc4nc(=O)s[nH]4)CC3)cc1)=N2` [Example 2-152]: the melting point is 225 to 226 °C. The IC50 in data set [1] is 10 to 100 nM.
As for `CC1(C)Oc2nc(C(F)(F)F)nc(N)c2N=C1c1ccc([C@H]2CC[C@H](CNC(=O)CO)CC2)cc1` [Example 2-154], the melting point lay in the range of 229 to 233 °C. Besides, the IC50 in data set [1] was 10 to 100 nM.
The compound `CCn1c(C[C@H]2CC[C@H](c3ccc(C4=Nc5c(N)nc(C)nc5OC4(C)C)cc3)CC2)n[nH]c1=O` [Example 2-156] returned a melting point greater than 250 °C. In addition, the IC50 in data set [1] lay within 10 to 100 nM.
Turning to `Cc1nc(N)c2c(n1)OC(C)(C)C(c1ccc([C@H]3CC[C@H](CN4CCOC4=O)CC3)cc1)=N2` [Example 2-158], the melting point lay within 240 to 241 °C. For the same compound, the IC50 in data set [1] lay in the range of 10 to 100 nM.
The matching figures for `Cc1nc(N)c2c(n1)OC(C)(C)C(c1ccc([C@H]3CC[C@H](CN4CC(=O)NC4=O)CC3)cc1)=N2` [Example 2-159]: 148 °C (dec.) and 10 to 100 nM.
The matching figures for `Cc1nc(N)c2c(n1)OC(C)(C)C(c1ccc([C@H]3CC[C@H](CCNC(=O)CO)CC3)cc1)=N2` [Example 2-160]: 185 to 186 °C and 10 to 100 nM.
